The supplement of paper PMC10307832

Legend:
Assay in all cases: relative viability (nuclei count vs DMSO), 5 days (fraction); higher = more cells survive
R406 + Luminespib = compound: COc1cc(Nc2ncc(F)c(Nc3ccc4c(n3)NC(=O)C(C)(C)O4)n2)cc(OC)c1OC [R406] + CCNC(=O)c1noc(-c2cc(C(C)C)c(O)cc2O)c1-c1ccc(CN2CCOCC2)cc1 [Luminespib] (partner 0.01 µM)
How it was run: (§1)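 Values are medians from duplicate plates. Each reflects relative viability, defined as the nuclei count of treated wells over that of vehicle wells. Lung cancer cell lines in 1536-well plates were pin-tool dosed one day after seeding with one drug alone or with a fixed anchor-drug dose plus five library-drug doses (not always all listed) in √10 steps, then fixed, stained and imaged at 4× after 5 days.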

R406 + Phenformin = compound: COc1cc(Nc2ncc(F)c(Nc3ccc4c(n3)NC(=O)C(C)(C)O4)n2)cc(OC)c1OC [R406] + N=C(N)NC(=N)NCCc1ccccc1 [Phenformin] (partner 250 µM)
How it was run: as §1

R406 + Decitabine = compound: COc1cc(Nc2ncc(F)c(Nc3ccc4c(n3)NC(=O)C(C)(C)O4)n2)cc(OC)c1OC [R406] + Nc1ncn([C@H]2C[C@H](O)[C@@H](CO)O2)c(=O)n1 [Decitabine] (partner 2 µM)
How it was run: as §1

Daporinad + Linsitinib = compound: O=C(/C=C/c1cccnc1)NCCCCC1CCN(C(=O)c2ccccc2)CC1 [Daporinad] + C[C@]1(O)C[C@@H](c2nc(-c3ccc4ccc(-c5ccccc5)nc4c3)c3c(N)nccn32)C1 [Linsitinib] (partner 1 µM)
How it was run: as §1

Row | Cell Line | relative viability (R406 + Luminespib; first compound 0.08 µM) | relative viability (R406 + Luminespib; first compound 0.253 µM) | relative viability (R406 + Luminespib; first compound 0.8 µM) | relative viability (R406 + Luminespib; first compound 2.53 µM) | relative viability (R406 + Luminespib; first compound 8 µM) | relative viability (R406 + Phenformin; first compound 0.08 µM) | relative viability (R406 + Phenformin; first compound 0.253 µM) | relative viability (R406 + Phenformin; first compound 0.8 µM) | relative viability (R406 + Phenformin; first compound 2.53 µM) | relative viability (R406 + Phenformin; first compound 8 µM) | relative viability (R406 + Decitabine; first compound 0.08 µM) | relative viability (R406 + Decitabine; first compound 0.253 µM) | relative viability (R406 + Decitabine; first compound 0.8 µM) | relative viability (R406 + Decitabine; first compound 2.53 µM) | relative viability (R406 + Decitabine; first compound 8 µM) | relative viability (Daporinad + Linsitinib; first compound 0.0005 µM) | relative viability (Daporinad + Linsitinib; first compound 0.001581 µM) | relative viability (Daporinad + Linsitinib; first compound 0.005 µM) | relative viability (Daporinad + Linsitinib; first compound 0.01581 µM)
1 | NCI-H322M | 0.791 | 0.827 | 0.855 | 0.306 | 0.35 | 0.709 | 0.721 | 0.853 | 0.582 | 0.275 | 0.665 | 0.669 | 0.704 | 0.594 | 0.557 | 0.995 | 1.03 | 0.926 | 0.925
2 | NCI-H358 | 0.313 | 0.555 | 0.492 | 0.147 | 0.136 | 0.298 | 0.3 | 0.309 | 0.151 | 0.115 | 0.224 | 0.211 | 0.222 | 0.119 | 0.125 | 0.64 | 0.822 | 0.882 | 0.791
3 | NCI-H441 | 0.399 | 0.373 | 0.432 | 0.277 | 0.209 | 0.829 | 0.872 | 1.05 | 0.44 | 0.309 | 0.231 | 0.248 | 0.276 | 0.217 | 0.24 | 0.533 | 0.473 | 0.605 | 0.56
4 | NCI-H460 | 0.0325 | 0.0281 | 0.0243 | 0.023 | 0.0248 | 0.552 | 0.682 | 0.609 | 0.105 | 0.102 | 0.426 | 0.596 | 0.758 | 0.0438 | 0.354 | 0.759 | 0.928 | 0.818 | 0.777
5 | NCI-H520 | 0.225 | 0.25 | 0.293 | 0.271 | 0.226 | 0.625 | 0.785 | 0.641 | 0.28 | 0.188 | 0.455 | 0.684 | 0.53 | 0.302 | 0.158 | 0.87 | 0.445 | 0.177 | 0.149
6 | NCI-H596 | 0.817 | 1.2 | 1.27 | 0.55 | 0.132 | 0.672 | 0.845 | 0.967 | 0.703 | 0.281 | 0.88 | 0.994 | 1.01 | 0.91 | 0.372 | 1.06 | 1.15 | 1.19 | 0.477
7 | NCI-H647 | 0.235 | 0.191 | 0.348 | 0.128 | 0.123 | 0.423 | 0.561 | 0.78 | 0.432 | 0.12 | 0.39 | 0.462 | 0.406 | 0.486 | 0.207 | 1.06 | 1.07 | 1.24 | 0.983
8 | NCI-H650 | 0.81 | 0.878 | 0.879 | 0.294 | 0.487 | 0.416 | 0.498 | 0.463 | 0.295 | 0.337 | 0.316 | 0.34 | 0.34 | 0.297 | 0.354 | 0.832 | 1.3 | 0.883 | 1.16
9 | NCI-H661 | 0.887 | 0.956 | 0.827 | 0.977 | 0.862 | 0.288 | 0.263 | 0.267 | 0.273 | 0.226 | 0.478 | 0.531 | 0.615 | 0.473 | 0.405 | 0.488 | 0.555 | 0.561 | 0.405
10 | NCI-H727 | 0.351 | 0.521 | 0.345 |  | 0.323 | 0.529 | 0.644 | 0.622 |  | 0.423 | 0.919 | 1.16 | 0.854 | 0.872 | 0.847 | 0.282 | 0.337 | 0.244 | 0.261
11 | NCI-H838 | 0.277 | 0.319 | 0.176 | 0.234 | 0.236 | 0.569 | 0.634 | 0.727 | 0.188 | 0.132 | 0.496 | 0.528 | 0.485 | 0.363 | 0.214 | 1.17 | 1.14 | 0.832 | 0.558
12 | NCI-H1355 | 0.713 | 0.804 | 0.664 | 0.497 | 0.39 | 0.474 | 0.472 | 0.472 | 0.197 | 0.28 | 0.335 | 0.348 | 0.377 | 0.345 | 0.367 | 0.798 | 1.02 | 0.9 | 0.876
13 | NCI-H1395 | 0.502 | 0.725 | 0.71 | 0.466 | 0.355 | 0.432 | 0.463 | 0.482 | 0.394 | 0.345 | 0.685 | 0.782 | 0.72 | 0.572 | 0.628 | 1.01 | 1.23 | 0.999 | 1.44
14 | NCI-H1437 | 1.14 | 1.13 | 1.15 | 1.23 | 0.966 | 0.301 | 0.31 | 0.251 | 0.29 | 0.201 | 0.552 | 0.623 | 0.567 | 0.665 | 0.472 | 0.969 | 0.986 | 0.976 | 0.965
15 | NCI-H1651 | 1.07 | 1.2 | 1.02 | 0.647 | 0.793 | 0.455 | 0.377 | 0.465 | 0.252 | 0.134 | 0.498 | 0.75 | 0.654 | 0.531 | 0.6 | 0.928 | 0.935 | 0.839 | 0.838
16 | NCI-H1666 | 1.02 | 1.16 | 1.03 | 1.05 | 0.64 | 0.542 | 0.576 | 0.59 | 0.616 | 0.476 | 0.672 | 0.792 | 0.637 | 0.936 | 0.74 | 0.834 | 0.764 | 0.747 | 0.839
17 | NCI-H1734 | 0.196 | 0.193 | 0.207 | 0.189 | 0.16 | 0.374 | 0.483 | 0.407 | 0.257 | 0.202 | 0.521 | 0.524 | 0.551 | 0.404 | 0.399 | 0.841 | 0.962 | 0.894 | 0.732
